How the values were obtained:
[1] = Assay 1. Stability in Simulated Gastric Fluid (SGF); type: in vitro ADME; details: 1 μM, 37° C., SGF pH 1.6 with pepsin
Outline: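 Acylated compounds at a final 1 μM (diluted from 1 mM DMSO stock) were incubated at 37 °C in SGF of pH 1.6 NaCl buffer with FaSSIF powder and 0.1 mg/mL pepsin. Aliquots were quenched with acetonitrile at T0 and regular intervals, and degradation rates were determined by LC/MS.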

[2] = Assay 2. Stability in Simulated Intestinal Fluid (SIF); type: in vitro ADME; details: 1 μM, 37° C., SIF pH 6.7 with pancreatin
Outline: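 Acylated compounds at 1 μM (from 1 mM DMSO stock) in fresh SIF: FaSSIF with pancreatin in pH 6.7 phosphate buffer, agitated at 37 °C. Aliquots from T0 onward quenched with 1 volume acetonitrile; LC/MS gives degradation rates.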

C57BL/6 DIO mice = experiment: DIO animal model of NAFLD/NASH in young mice (Example 16); type: in vivo; parameters: OGTT: unit not given beside the values; details: ad libitum in HFD; for % Weight change: 12 weeks; for OGTT: Day 82, 2 g/kg glucose PO; for OGTT / % HbA1c: ctrl HFD; for % Difference compared to ctrl: weight change vs HFD ctrl
Description: Species (number, sex, age/weight): C57BL/6 DIO mice (120+10 spares, male, ˜18 weeks of age) from Jackson Laboratories, Stock #380050. Note: 18 week old DIO mice sent sent with a minimum body weight of 39 grams. Spare animals may be used to replace study animals, as required, euthanized after completion of dose administration or transferred to Testing Facility Docket 07-12.
Cage Side Observations (Animal Health Checks): Cage side animal's health checks will be performed at least once daily to check for general health, mortality and moribundity. Clinical Observations: Clinical observations will be performed per exception. Body Weights: Body weights for all animals will be recorded prior to Day 1 and at least twice weekly thereafter, including prior to necropsy ([…]).
Dose Administration: Dosing for Groups 3-8 will be provided ad libitum in the diet. Dosing for Groups 9 (Saline) and 10 (Semaglutide at 123.4 μg/kg) in a 5 mL/kg volume, will begin on Day 1, and be performed 3 times weekly for 12 weeks by SC administration. Residual Test Article: All residual high fat diets will be frozen at nominally −20° C., and at the end of the study, several pellets of the diets for groups 2-9 (in 50-ml conical tubes) will be shipped to Sponsor, and the rest will be discarded. Residual control diets (group 1) will be stored ambient, and at the end of the study, several pellets in a 50 mL conical tube will be shipped to Sponsor and the rest is discarded. Residual test material for Group 10 will be stored at nominally −70° C., and at the end of the study, an aliquot of test material will be shipped to Sponsor, and the rest will be discarded.
(§1) Oral Glucose Tolerance Test (oGTT) On Day 82 (+/−2 days) an oGTT will be performed. Following an approximate 4 hour fast, 2 g/kg glucose (50% Dextrose diluted in sterile water for injection to a concentration of 0.4 g/mL) will be administered at 5 mL/kg via oral gavage (PO). Blood will be collected pre-glucose challenge (t=0) and at t=15, 30, 60, 90, and 120 minutes following the glucose challenge. Whole blood glucose levels will be evaluated at all time points using a handheld glucometer and will be reported in the Data Submission. This will be scheduled on a Tuesday or Thursday to avoid Group 9/10 dosing days.
as §1, with “Submission.” for “Submission. This will be scheduled on a Tuesday or Thursday to avoid Group 9/10 dosing days.”

Row | SMILES | Assay 1 (SGF) (% Remaining @ 1 hours) [1] | Assay 2 (SIF) (% @ Remaining 4 hours) [2] | % Weight change (C57BL/6 DIO mice) | OGTT (C57BL/6 DIO mice) | % HbA1c (C57BL/6 DIO mice) | % Difference compared to ctrl (C57BL/6 DIO mice)
1 | CC(=O)Oc1cc(OC(C)=O)c2c(c1)O[C@H](c1cc(OC(C)=O)c(OC(C)=O)c(OC(C)=O)c1)[C@H](OC(=O)c1cc(OC(C)=O)c(OC(C)=O)c(OC(C)=O)c1)C2 [Compound 4, [(2R,3R)-5,7-diacetoxy-2-(3,4,5-triacetoxyphenyl)chroman-3-yl] 3,4,5-triacetoxybenzoate] | C (C: >75% of the tested compound remaining) | A (A: <25% of the tested compound remaining) | 19% | 25072 | 4.89% | −4%
2 | CC(=O)Oc1cc(OC(C)=O)c2c(=O)c(OC(C)=O)c(-c3ccc(OC(C)=O)c(OC(C)=O)c3)oc2c1 [Compound 14, [2-acetoxy-4-(3,5,7-triacetoxy-4-oxo-chromen-2-yl)phenyl] acetate] | C (C: >75% of the tested compound remaining) | A (A: <25% of the tested compound remaining) | 16% | 32591 | 6.93% | −7%
3 | CC(=O)O[C@H]1OC[C@H](OC(C)=O)[C@H](OC(C)=O)[C@H]1OC(C)=O [Compound 53, (2R,3R,4S,5S)-tetrahydro-2H-pyran-2,3,4,5-tetrayl Tetraacetate] | C (C: >75% of the tested compound remaining) | A (A: <25% of the tested compound remaining) | 10% | 25779 | 4.35% | −13%

Reference: patent US10953027B2, “Active agents and methods of their use for the treatment of metabolic disorders and nonalcoholic fatty liver disease” (Flagship Pioneering Innovations V, Inc., priority 2018, dated 2021)
